Experimental data taken from ChEMBL document CHEMBL1201862, “PubChem BioAssay data set” (2004).
Calls of active or inactive are those of the source.

Key:
Caspase-3 = biological target: T1, Caspase-3 (Homo sapiens, UniProt P42574); assay type: functional;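 note: Dose-response selectivity test against caspase-3 for candidate inhibitors of sentrin-specific proteases (SENPs)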
T1 sequence (P42574 whole entry): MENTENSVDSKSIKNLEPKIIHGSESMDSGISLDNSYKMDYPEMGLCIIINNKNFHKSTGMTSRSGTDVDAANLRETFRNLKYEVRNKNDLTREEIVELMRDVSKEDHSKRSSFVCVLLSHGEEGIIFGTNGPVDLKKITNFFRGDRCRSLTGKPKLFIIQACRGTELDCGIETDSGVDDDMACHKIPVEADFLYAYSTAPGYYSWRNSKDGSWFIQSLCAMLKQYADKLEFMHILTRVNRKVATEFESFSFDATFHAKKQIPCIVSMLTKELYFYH

[1] = biological target: T2, Sentrin-specific protease 7 (Homo sapiens, UniProt Q9BQF6); assay type: functional;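 note: Luminescence-based dose-response confirmation of ultra-high-throughput screening hits, measuring inhibition of SENP7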
T2 sequence (Q9BQF6 whole entry): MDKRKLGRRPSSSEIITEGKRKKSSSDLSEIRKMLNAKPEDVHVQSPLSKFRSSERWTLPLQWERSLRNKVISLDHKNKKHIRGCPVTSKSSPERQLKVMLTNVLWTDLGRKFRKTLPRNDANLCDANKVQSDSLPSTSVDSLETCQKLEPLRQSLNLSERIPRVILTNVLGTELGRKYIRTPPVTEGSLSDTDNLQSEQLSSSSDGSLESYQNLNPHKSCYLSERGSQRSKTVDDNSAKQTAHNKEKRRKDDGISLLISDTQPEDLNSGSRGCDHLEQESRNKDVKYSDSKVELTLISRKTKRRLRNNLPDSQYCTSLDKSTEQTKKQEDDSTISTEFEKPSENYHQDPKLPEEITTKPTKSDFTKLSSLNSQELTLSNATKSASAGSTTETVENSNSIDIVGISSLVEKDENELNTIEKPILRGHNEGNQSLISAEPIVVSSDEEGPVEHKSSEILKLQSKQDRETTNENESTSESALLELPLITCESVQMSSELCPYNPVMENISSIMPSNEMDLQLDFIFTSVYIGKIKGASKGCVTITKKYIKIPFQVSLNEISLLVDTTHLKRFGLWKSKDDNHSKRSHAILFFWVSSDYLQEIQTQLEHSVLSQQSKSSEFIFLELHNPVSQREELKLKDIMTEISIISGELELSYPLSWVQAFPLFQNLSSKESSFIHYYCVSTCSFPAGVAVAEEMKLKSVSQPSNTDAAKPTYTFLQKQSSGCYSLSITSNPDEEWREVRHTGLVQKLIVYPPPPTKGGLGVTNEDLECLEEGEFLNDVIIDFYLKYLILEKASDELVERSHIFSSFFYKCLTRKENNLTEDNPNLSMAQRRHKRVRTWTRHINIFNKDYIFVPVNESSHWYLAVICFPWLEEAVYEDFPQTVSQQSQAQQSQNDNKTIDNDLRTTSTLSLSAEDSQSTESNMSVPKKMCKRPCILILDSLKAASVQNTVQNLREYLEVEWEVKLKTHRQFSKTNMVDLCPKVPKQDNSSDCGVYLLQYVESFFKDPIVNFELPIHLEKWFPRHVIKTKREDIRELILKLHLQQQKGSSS

[2] = biological target: T3, Sentrin-specific protease 6 (Homo sapiens, UniProt Q9GZR1); assay type: functional;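 note: Luminescence-based dose-response confirmatory assay of SENP6 inhibition, following up an ultra-high-throughput screen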
T3 sequence (Q9GZR1 whole entry): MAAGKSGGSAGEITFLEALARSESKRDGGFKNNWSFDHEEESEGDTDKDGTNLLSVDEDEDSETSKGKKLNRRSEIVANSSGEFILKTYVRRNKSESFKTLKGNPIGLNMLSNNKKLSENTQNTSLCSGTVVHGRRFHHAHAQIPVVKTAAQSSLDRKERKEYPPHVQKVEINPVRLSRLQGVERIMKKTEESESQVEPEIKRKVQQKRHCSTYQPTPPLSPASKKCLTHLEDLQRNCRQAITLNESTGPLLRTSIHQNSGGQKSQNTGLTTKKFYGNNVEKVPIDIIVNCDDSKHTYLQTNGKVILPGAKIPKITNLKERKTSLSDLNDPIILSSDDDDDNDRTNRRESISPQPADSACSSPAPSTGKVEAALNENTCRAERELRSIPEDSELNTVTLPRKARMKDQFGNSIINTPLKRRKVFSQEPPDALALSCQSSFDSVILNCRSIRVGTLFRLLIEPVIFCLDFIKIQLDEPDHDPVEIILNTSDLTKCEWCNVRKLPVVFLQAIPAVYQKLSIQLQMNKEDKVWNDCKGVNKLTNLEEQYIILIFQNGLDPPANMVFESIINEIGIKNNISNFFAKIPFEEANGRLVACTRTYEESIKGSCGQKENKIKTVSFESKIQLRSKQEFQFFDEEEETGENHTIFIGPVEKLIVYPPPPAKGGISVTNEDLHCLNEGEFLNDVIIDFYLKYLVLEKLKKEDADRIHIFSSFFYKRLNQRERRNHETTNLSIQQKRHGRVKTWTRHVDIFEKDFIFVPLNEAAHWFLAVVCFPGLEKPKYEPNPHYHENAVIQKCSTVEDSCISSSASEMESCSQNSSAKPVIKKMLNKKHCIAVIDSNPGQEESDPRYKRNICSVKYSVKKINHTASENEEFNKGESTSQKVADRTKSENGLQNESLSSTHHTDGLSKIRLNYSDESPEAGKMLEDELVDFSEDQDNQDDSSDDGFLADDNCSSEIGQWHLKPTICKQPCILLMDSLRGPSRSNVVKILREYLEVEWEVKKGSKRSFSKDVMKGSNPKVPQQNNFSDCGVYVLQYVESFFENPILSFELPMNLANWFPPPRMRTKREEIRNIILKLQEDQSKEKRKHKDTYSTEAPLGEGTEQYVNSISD

[3] = biological target: T4, Sentrin-specific protease 8 (Homo sapiens, UniProt Q96LD8); assay type: functional;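 note: luminescence read-out of SENP8 inhibition, dose-response confirmation following an ultra-high-throughput screen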
T4 sequence (Q96LD8 whole entry): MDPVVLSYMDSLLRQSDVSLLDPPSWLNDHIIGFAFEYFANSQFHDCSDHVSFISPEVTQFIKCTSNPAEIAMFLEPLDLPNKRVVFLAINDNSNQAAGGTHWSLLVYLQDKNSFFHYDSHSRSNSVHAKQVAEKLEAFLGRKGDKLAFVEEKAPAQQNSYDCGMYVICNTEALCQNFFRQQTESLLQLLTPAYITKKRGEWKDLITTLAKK

[4] = Luminescence Cell-Based Dose Retest to Confirm Inhibitors of Cancer Stem Cells. [Related pubchem assays (depositor defined):AID2717, AID2721]; assay type: functional; conditions: Homo sapiens
[5] = biological target: Dual specificity tyrosine-phosphorylation-regulated kinase 1A (Rattus norvegicus, UniProt Q63470); assay type: biochemical, Homo sapiens
[6] = biological target: T5, Long-chain-fatty-acid--AMP ligase FadD28 (Mycobacterium tuberculosis, UniProt P9WQ59); assay: Fluorescence polarization aasay to screen for inhibitors that compete for the binding of FadD28 to a bisubstrate Measured in Biochemical System Using Plate Reader - 2147-01_Inhibitor_Dose_CherryPick_Activity.; assay type: functional, Mycobacterium tuberculosis H37Rv
T5 sequence (P9WQ59 whole entry): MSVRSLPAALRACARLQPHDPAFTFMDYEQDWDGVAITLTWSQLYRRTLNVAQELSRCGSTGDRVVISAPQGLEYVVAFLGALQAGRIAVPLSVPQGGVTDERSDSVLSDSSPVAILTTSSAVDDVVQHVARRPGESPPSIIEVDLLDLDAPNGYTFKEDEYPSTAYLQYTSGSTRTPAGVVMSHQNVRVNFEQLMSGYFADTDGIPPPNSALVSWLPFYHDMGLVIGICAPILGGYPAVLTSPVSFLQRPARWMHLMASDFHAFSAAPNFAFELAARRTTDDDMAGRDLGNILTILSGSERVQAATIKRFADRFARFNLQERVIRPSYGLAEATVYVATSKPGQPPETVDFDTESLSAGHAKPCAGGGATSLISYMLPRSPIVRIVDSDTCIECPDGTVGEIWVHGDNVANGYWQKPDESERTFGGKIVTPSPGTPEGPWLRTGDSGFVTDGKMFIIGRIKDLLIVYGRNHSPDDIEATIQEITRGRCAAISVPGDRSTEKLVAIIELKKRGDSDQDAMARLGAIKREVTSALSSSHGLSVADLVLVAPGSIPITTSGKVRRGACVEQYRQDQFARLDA

Cysteine protease ATG4B = biological target: T6, Cysteine protease ATG4B (Homo sapiens, UniProt Q9Y4P1); assay type: functional;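 note: Fluorescence-based dose-response confirmation assay measuring inhibition of ATG4B activity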
T6 sequence (Q9Y4P1 whole entry): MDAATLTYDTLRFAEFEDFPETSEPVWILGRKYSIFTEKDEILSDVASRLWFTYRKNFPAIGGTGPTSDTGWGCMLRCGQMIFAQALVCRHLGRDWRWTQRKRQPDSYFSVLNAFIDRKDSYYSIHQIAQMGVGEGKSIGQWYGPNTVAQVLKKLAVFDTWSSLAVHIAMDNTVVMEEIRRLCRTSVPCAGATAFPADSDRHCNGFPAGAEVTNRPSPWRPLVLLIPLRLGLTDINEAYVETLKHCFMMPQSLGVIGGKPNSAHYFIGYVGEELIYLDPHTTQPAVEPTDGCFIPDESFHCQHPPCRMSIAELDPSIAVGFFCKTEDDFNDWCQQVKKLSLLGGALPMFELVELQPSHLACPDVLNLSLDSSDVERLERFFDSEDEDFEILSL

Phospholipase A2 = Phospholipase A2 (Homo sapiens, UniProt P04054); assay type: functional;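 note: confirmatory dose-response counterscreen on phospholipase A2, testing hits that came from an ultra-high-throughput screen for ATG4B inhibitors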
[7] = Luminescence Cell-Based Dose Response to Identify Activators of 5'UTR Stem-Loop Driven Prion Protein mRNA Translation in H4-C Neuroglioblastoma Cells. [Related pubchem assays: 1829 (Project Summary), 1814 (Primary HTS)]; assay type: functional
[8] = Luminescence Cell-Based Dose Confirmation HTS to Identify Activators of 5'UTR Stem-Loop Driven Alpha-Synuclein mRNA Translation in H4 Neuroglioblastoma Cells. [Related pubchem assays: 1829 (Project Summary), 1814 (Primary HTS)]; assay type: functional
[9] = Luminescence Cell-Based Dose Response HTS to Identify Activators of Luciferase Translation or Activity in H4 […] Cells. [Related pubchem assays: 1829 (Project Summary), 1814 (Primary HTS)]; assay type: functional
[10] = test system: Streptococcus sp. 'group A'; assay: Streptococcus pyogenes SK(-)GAS viability under kanamycin – luminescence, BacTiterGlo, confirmation, counter-screen for streptokinase expression inhibitor project, dose response (AID 1900); assay type: functional, organism-based
H4 = assay: Luminescence Cell-Based Dose Response HTS to Identify Activators of 5'UTR Stem-Loop Driven Prion Protein mRNA Translation in H4 Neuroglioblastoma Cells. [Related pubchem assays: 1829 (Project Summary), 1814 (Primary HTS)]; assay type: functional; conditions: Homo sapiens
Streptokinase A = biological target: T7, Streptokinase A (Streptococcus pyogenes serotype M1, UniProt P10520); assay: viability-normalized secreted streptokinase activity reduction – plasminogen activation absorbance, OD405, dose response (AID 1914); assay type: functional, Streptococcus pyogenes M1 GAS;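 note: secreted streptokinase activity via plasminogen activation per viability signal from cell pellet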
T7 sequence (P10520 whole entry): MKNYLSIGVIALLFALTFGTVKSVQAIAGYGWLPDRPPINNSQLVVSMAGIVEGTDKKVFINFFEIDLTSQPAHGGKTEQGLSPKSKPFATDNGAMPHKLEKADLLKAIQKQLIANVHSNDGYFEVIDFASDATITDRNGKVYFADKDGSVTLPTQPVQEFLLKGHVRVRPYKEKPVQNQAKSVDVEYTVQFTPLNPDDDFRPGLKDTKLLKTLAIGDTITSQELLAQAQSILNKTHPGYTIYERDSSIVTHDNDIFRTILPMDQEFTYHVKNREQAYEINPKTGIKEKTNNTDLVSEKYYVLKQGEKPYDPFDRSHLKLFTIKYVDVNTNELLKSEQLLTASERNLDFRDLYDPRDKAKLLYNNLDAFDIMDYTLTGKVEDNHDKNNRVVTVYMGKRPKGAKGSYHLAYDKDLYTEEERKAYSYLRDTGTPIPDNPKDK

[11] = Luminescence Cell-Based Dose Response to Identify Activators of Luciferase Translation or Activity in H4-C Neuroglioblastoma Cells. [Related pubchem assays: 1829 (Project Summary), 1814 (Primary HTS)]; assay type: functional
[12] = Luminescence Cell-Based Dose Confirmation to Identify Activators of 5'UTR Stem-Loop Driven Alpha-Synuclein mRNA Translation in H4 Neuroglioblastoma Cells. [Related pubchem assays: 1829 (Project Summary), 1814 (Primary HTS)]; assay type: functional
Streptococcus = assay: GAS UMAA2166 growth inhibition – luminescence, BacTiterGlo, counter-screen for streptokinase expression inhibitor project, dose response (AID 1915); assay type: functional, organism-based;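 note: potency for reduction of bacterial viability or growth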
HeLa = assay: ATP-based viability loss in HeLa cells – cell-based, CellTiter-Glo luminescence, cherry-pick samples, cytotoxicity control for MITF activator project, dose response (AID 540259); assay type: functional; conditions: Homo sapiens
[13] = biological target: Beta-2 adrenergic receptor (Homo sapiens, UniProt P07550); assay: ADRB2 activation measured by internalization – cell-based, FAP fluorogen, flow cytometry, cherry pick 1, dose response (AID 588763); assay type: functional
Beta-2 adrenergic receptor, sequence (P07550 whole entry): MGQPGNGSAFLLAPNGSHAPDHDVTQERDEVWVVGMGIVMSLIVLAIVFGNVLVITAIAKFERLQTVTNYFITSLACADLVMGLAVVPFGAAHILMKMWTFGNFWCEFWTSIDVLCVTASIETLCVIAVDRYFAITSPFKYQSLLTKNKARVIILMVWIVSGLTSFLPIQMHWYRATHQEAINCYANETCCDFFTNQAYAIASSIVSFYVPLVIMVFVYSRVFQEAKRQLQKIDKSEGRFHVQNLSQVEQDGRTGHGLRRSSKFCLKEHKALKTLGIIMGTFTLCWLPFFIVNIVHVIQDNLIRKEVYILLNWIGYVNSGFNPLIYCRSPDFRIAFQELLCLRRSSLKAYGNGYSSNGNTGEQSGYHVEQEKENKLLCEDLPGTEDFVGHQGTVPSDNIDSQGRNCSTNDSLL

Phospholipase A2, sequence (P04054 whole entry): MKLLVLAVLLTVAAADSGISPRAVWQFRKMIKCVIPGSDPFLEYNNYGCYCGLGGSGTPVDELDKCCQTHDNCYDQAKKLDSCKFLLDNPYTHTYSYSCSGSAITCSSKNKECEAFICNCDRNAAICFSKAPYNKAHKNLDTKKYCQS

With `COc1ccc(/C=N/Nc2nncc3ccccc23)c(OC)c1` the IC50 (Caspase-3) was 7.23 µM (active), the IC50 [1] was 3.46 µM (active) and the IC50 [2] was 11.1 µM (active). For the same molecule, the IC50 [3] was 44.8 µM (active).
For `Cc1ccc(C(=O)Nc2nc(C)c(C(=O)Nc3ccc4c(c3)CCC4)s2)cc1`, the AC50 [4] was 0.458 µM (active), the IC50 (Caspase-3) was 19.8 µM (active) and the IC50 [1] was 8.21 µM (active). The IC50 [2] was > 100 µM (inactive) and the IC50 [3] was > 100 µM (inactive).
In the case of `Oc1ccc(/C=N/n2c(S)nnc2C2CCCCC2)c(O)c1`, the AC50 [5] is reported as 0.93 µM (active) and the AC50 [6] is reported as 48.8 µM (active).
In the case of `O=C(O)c1cccc(CSc2nc(-c3ccc(Cl)cc3)cc(C(F)(F)F)n2)c1`, the IC50 (Cysteine protease ATG4B) is reported as 12.8 µM (active) and the IC50 (Phospholipase A2) is reported as 11.4 µM (active).
With `O=C(Cn1cccc1C(=O)c1ccccc1)NCCC1=CCCCC1` the IC50 (Cysteine protease ATG4B) was 20.1 µM (inactive) and the IC50 (Phospholipase A2) was 11.7 µM (active).
With `Cc1cccc2nc(COc3ccc4ccccc4c3Br)cn12` the EC50 [7] was 0.638 µM (active), the EC50 [8] was 0.167 µM (active) and the EC50 [9] was < 0.1 µM (inconclusive). The EC50 [10] was 12.7 µM (active), the EC50 (H4) was > 120 µM (not active) and the EC50 (Streptokinase A) was > 150 µM (not active). The EC50 [11] was 0.561 µM (active), the EC50 [12] was 0.34 µM (active) and the EC50 (Streptococcus) was > 150 µM (not active). For the same molecule, the AC50 (HeLa) was 73 µM (active) and the EC50 [13] was 3.71 µM (active).
With `CCCc1ccc(OCc2nc(-c3ccc(NC(=O)c4ccco4)cc3)no2)cc1` the EC50 [13] was 0.161 µM (active).
For `O=C(N/N=C/c1cccc(Oc2ccccc2)c1)c1cccc(O)c1`, the IC50 (Caspase-3) was 31.2 µM (active), the IC50 [1] was 10.7 µM (active) and the IC50 [2] was 25.7 µM (active). The IC50 [3] was 24 µM (active).
